Experimental data reported in patent US20150258047A1, “Therapeutic Compounds” (AKTHELIA PHARMACEUTICALS, priority 2011, published 2015).
Values joined by “and” are separate entries in the source; they are usually repeats but may differ in a detail not shown here. Equal values may be shown once. Read-outs that look alike come from different tables or passages of the source. Where no end group is shown, it is not given here.

Key:
[1] = test system: Pseudomonas aeruginosa (strain PA01); assay: Visual inspection of VA10 cell cultures infected with Pseudomonas aeruginosa; format: cell-based; settings: VA10 cells induced 48 h with 20 nM vitamin D, 4 mM PBA or both; 24 hrs after infection; control wells dense culture of bacteria
Procedure: FIG. 7. Visual assessment of survival of VA10 cells in the presence of low infectivity Pseudomonas aeruginosa 0-1 bacteria (PAO1). After cultivating for 6 days the cells were stimulated for 48 h with 4-PBA, VitD, and 4-PBA+VitD. Subsequently the cells were stimulated for 24 h with 10 MOI PAO1 and inspected under the microscope.
VA10 cells were grown in BEGM medium (Bronchial Epithelial Growth Medium). VA10 cells were induced by adding PBA and/or vitamin D to the medium. Untreated control was included. After 48 h induction the culture was infected with low dose of Pseudomonas aeruginosa (strain PA01) along with freeze-thaw-treated bacteria. After 24 hrs of cultivation the culture wells were visually inspected. Dense culture of bacteria was found in control wells, but the wells of cells that had been induced with 20 nM vitamin D, 4 mM PBA or combination of 20 nM vitamin D and 4 mM PBA contained clear medium (FIG. 7).

[2] = test system: Haemophilus influenzae
[3] = test system: Moraxella catarrhalis
[4] = test system: CAP-18; assay: CAP-18 gene expression in tissue specimens of Shigella-infected rabbits; format: in vivo, rabbit; design: scale not given here; settings: treated Shigella-infected rabbits, n = 5, median
[5] = test system: Shigella; assay: Shigellosis rabbit model, clinical illness and recovery; format: in vivo; settings: for clinical illness: Shigella infected rabbits
Procedure: (§1) Anti-Shigella activity in stool extracts from PBA, TBG and NaB-treated rabbits was higher compared to infected or healthy rabbits.
(§2) In a shigellosis model a 0.14 mmol/dose lead to 2 out of 3 rabbits recovering from shigellosis. Assuming a blood volume of 121 ml in the 2 kg rabbit the maximum concentration of NaB in the blood after IV administration would have been 1.2 mM.

[6] = test system: Shigella; assay: Anti-Shigella activity in stool extracts of treated rabbits; format: in vivo, rabbit; settings: compared to infected or healthy rabbits
Description: as §1

[7] = test system: CAP-18; assay: CAP-18 immunoreactivity in epithelial lining of organs (immunostaining, ACIA score); format: in vivo, rabbit; settings: for CAP-18 peptide in the mucosal epithelia: Shigella infected rabbits, lung, trachea, rectum and colon; for CAP-18 (protein) expression: oral, shigellosis infected rabbit, rectum, distal colon, kidney, lung and trachea relative to untreated infected rabbits (FIG. 1A); for CAP-18 in the organs of healthy rabbits: oral (FIG. 1B)
Description: FIG. 1. CAP-18 immunoreactivity in the epithelial lining of different organs in (A) Healthy rabbits, Shigella-infected rabbits and infected rabbits treated with NaB, TBG or PBA (B) healthy rabbits treated with NaB, TBG or PBA. Quantification of immunoreactive area relative to the total cell area of the tissue section was done by a computerized image analysis technique, and the results are expressed as ACIA score, i.e., the total positively stained area×total mean intensity (1-256 levels/per pixel) of the positive area divided by total cell area. One-way ANOVA was used in comparing data between healthy and infected/infected treated rabbits, between infected and infected treated rabbits, and between healthy and healthy-treated rabbits. The differences were significant when P<0.05; ‡ significant when comparing with healthy, * significant when comparing with infected.

[8] = Butyrate concentration in rabbit serum after oral NaB; format: in vivo; settings: oral dosing of 15.6 mg to each rabbit, read-out: maximum concentration of butyrate in the blood (Cmax)
Procedure: FIG. 2. Butyrate concentration in healthy rabbit serum after oral treatment with NaB. Serum was collected from healthy rabbits at different time points after oral treatment with a single 0.14 mmol dose of NaB (15.6 mg). Four analyses (duplicate analyses of two samples) of serum from a NaB treated rabbit are shown, where the concentrations are calculated from two separate standard curves (one for each duplicate). NaB: Sodium butyrate.
The maximum concentration of butyrate in the blood is about 8 μM (Cmax) after oral dosing of 15.6 mg of butyrate to each rabbit.

[9] = test system: Shigella flexneri strain; settings: cited from earlier work
[10] = Maximum concentration of NaB in blood after IV administration (assumed blood volume); format: in vivo; settings: 0.14 mmol/dose; assuming blood volume of 121 ml in the 2 kg rabbit
Procedure: as §2

[11] = test system: Shigella dysenteriae type 1 strain; settings: cited from earlier work
[12] = test system: E. coli strain E2348/69 (EPEC); format: cell-based; settings: strain E2348/69 (EPEC, 0.90 μM)
Procedure: To assess bactericidal activity of synthetic CAP-18 and PBA, an in vitro killing experiment was carried out with E. coli strain E2348/69 (EPEC). […] Note that dosing in Phase II TB study is 1 g daily with 5000 IU vitamin D.

[13] = after the administration of a 5 g dose; cited from earlier work
[14] = test system: DEFB-1; assay: DEFB-1 mRNA expression in VA10 cells by rtPCR; format: cell-based, human; settings: first 4-PBA, subsequently low-dose inactivated Pseudomonas bacteria
Procedure: FIG. 9. DEFB-1 expression in VA10 cells after 48 h stimulation with 4 mM 4-PBA, 20 nM VitD, and […]+20 nM VitD and subsequent 24 h stimulation with low infectivity freeze-thawed PAO1 suspension (PAO1 has been frozen in DMEM at −25° C. for a week. The majority of bacteria have been inactivated.)
In addition to the visual inspection the degree of induction of CAMP mRNA, that codes for LL-37, and DEFB-1, that codes for […], was determined by rtPCR.

[15] = LP (lamina propria) distal colon
[16] = SE (surface epithelium) distal colon

Compound | visual inspection of culture wells [1] | CAP-18 gene expression ([4]; Kidney) | CAP-18 gene expression [4, 15] | CAP-18 gene expression ([4]; LP (lamina propria) rectum) | CAP-18 gene expression ([4]; Lungs) | CAP-18 gene expression [4, 16] | CAP-18 gene expression ([4]; SE (surface epithelium) rectum) | CAP-18 gene expression ([4]; Trachea) | CAP-18 gene expression ([4]; U. tract) | clinical illness [5] | Anti-Shigella activity in stool extracts [6] | CAP-18 peptide in the mucosal epithelia [7] | CAP-18 (protein) expression [7] | CAP-18 in the organs of healthy rabbits [7] | further results
vitamin D | clear medium |  |  |  |  |  |  |  |  |  |  |  |  |  | 
CC[C@H](C)[C@H](NC(=O)[C@H](CCCCN)NC(=O)[C@H](CCC(=O)O)NC(=O)[C@H](CCCCN)NC(=O)[C@H](CO)NC(=O)[C@H](CCCCN)NC(=O)[C@H](CCCNC(=N)N)NC(=O)[C@H](Cc1ccccc1)NC(=O)[C@H](Cc1ccccc1)NC(=O)[C@H](CC(=O)O)NC(=O)CNC(=O)[C@H](CC(C)C)NC(=O)[C@@H](N)CC(C)C)C(=O)NCC(=O)N[C@@H](CCCCN)C(=O)N[C@@H](CCC(=O)O)C(=O)N[C@@H](Cc1ccccc1)C(=O)N[C@@H](CCCCN)C(=O)N[C@@H](CCCNC(=N)N)C(=O)N[C@H](C(=O)N[C@H](C(=O)N[C@@H](CCC(N)=O)C(=O)N[C@@H](CCCNC(=N)N)C(=O)N[C@H](C(=O)N[C@@H](CCCCN)C(=O)N[C@@H](CC(=O)O)C(=O)N[C@@H](Cc1ccccc1)C(=O)N[C@@H](CC(C)C)C(=O)N[C@@H](CCCNC(=N)N)C(=O)N[C@@H](CC(N)=O)C(=O)N[C@@H](CC(C)C)C(=O)N[C@H](C(=O)N1CCC[C@H]1C(=O)N[C@@H](CCCNC(=N)N)C(=O)N[C@H](C(=O)N[C@@H](CCC(=O)O)C(=O)N[C@@H](CO)C(=O)O)[C@@H](C)O)C(C)C)[C@@H](C)CC)C(C)C)[C@@H](C)CC [LL-37] |  |  |  |  |  |  |  |  |  |  |  |  |  |  | Zone diameter ([2]; 50 uM): 0 mm; Zone diameter ([2]; 100 uM): 7.75 mm; Zone diameter ([2]; 300 uM): 13.3 mm; Zone diameter ([3]; 10 uM): 5.4 mm; Zone diameter ([3]; 25 uM): 6.3 mm; Zone diameter ([3]; 50 uM): 7.45 mm; Zone diameter ([3]; 100 uM): 8.9 mm
CCCC(=O)OCC(COC(=O)CCC)OC(=O)CCC [TBG, glyceryl tributyrate] |  | 2.7 | 0.43 | 0.07 | 6.4 | 2.8 | 0.4 | 1.11 | 0.25 | reduced clinical illness | higher | up-regulation | systemic stimulation |  | CAP-18 peptide level in the kidney ([7]; non-infected rabbits (FIG. 1B)): increased levels
CCCC(=O)O [NaB, sodium butyrate] |  | 17.4 | 0.55 | 0.1 | 12.6 | 5.0 | 0.3 | 0.71 | 0.19 | reduced clinical illness | higher | up-regulation | systemic stimulation | do not cause increase | Cmax [8]: ~8 µM; concentration for maximum killing [9]: 400 mM and 44 mg/ml; rabbits recovering from shigellosis ([5]; 0.14 mmol/dose, intravenous): 2 out of 3; maximum concentration in the blood after IV administration [10]: 1.2 mM; concentration for maximum killing [11]: 400 mM and 44 mg/ml; CAP-18 level ([7]; colonic SE, intravenous injection into infected rabbits): 5.6±1.8 ACIA score; CAP-18 level ([7]; colonic SE, orally treated infected rabbits): 7.4±0.5 ACIA score; CAP-18 level ([7]; rectal SE, intravenous injection into infected rabbits): 6.5±1.8 ACIA score; CAP-18 level ([7]; rectal SE, orally treated infected rabbits): 8.13±1 ACIA score
GLRKRLRKFRNKIKEKLKKIGQKIQGLLPKLAPRTDY [CAP-18] |  |  |  |  |  |  |  |  |  |  |  |  |  |  | killing of EPEC [12]: 97-99%
O=C(O)CCCc1ccccc1 [PBA, sodium 4-phenylbutyrate, reference compound] | clear medium | 3.9 | 0.53 | 0.41 | 5.3 | 2.4 | 0.18 | 1.1 | 0.13 | reduced clinical illness | higher | up-regulation | systemic stimulation | do not cause increase | Cmax [13]: 1200 µM; DEFB-1 expression [14]: up to six-fold
